Data as given in patent US9399646B2 (Genentech, Inc., priority 2010, dated 2016).

Experiments:
[1] = tested on: MCF-7 cells; experiment: Breast cancer cell viability assay (CellTiter-Glo, 5 days); format: cell-based; details: 5 days' compound exposure; for IC50: Homo sapiens, MCF7, 120 h
Procedure, shortened: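 MCF-7 cells, 320 per well in RPMI with 10% FBS and 20 mM HEPES, adhered overnight, then exposed 5 days to an eleven-point semilog dilution (final 0.3-0.000003 μM). CellTiter-Glo luminescence read; % viability = (sample − cell-free background)/(untreated − background) × 100.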

[2] = molecular target: T1, ER-α in MCF-7 cells (Homo sapiens, UniProt P03372); experiment: Breast cancer cell ER-α in cell western assay (SP1); format: cell-based; parameters: endogenous in cells; host or cells: MCF-7; details: 4 or 24 hr post compound addition; for Emax: MCF7, SP1 antibody, read-out: ER-α In Cell Western Assay (SP1) Max Response; for DC50: SP1 antibody, read-out: ER-α In Cell Western Assay (SP1) IC50
T1 sequence (P03372 1-595): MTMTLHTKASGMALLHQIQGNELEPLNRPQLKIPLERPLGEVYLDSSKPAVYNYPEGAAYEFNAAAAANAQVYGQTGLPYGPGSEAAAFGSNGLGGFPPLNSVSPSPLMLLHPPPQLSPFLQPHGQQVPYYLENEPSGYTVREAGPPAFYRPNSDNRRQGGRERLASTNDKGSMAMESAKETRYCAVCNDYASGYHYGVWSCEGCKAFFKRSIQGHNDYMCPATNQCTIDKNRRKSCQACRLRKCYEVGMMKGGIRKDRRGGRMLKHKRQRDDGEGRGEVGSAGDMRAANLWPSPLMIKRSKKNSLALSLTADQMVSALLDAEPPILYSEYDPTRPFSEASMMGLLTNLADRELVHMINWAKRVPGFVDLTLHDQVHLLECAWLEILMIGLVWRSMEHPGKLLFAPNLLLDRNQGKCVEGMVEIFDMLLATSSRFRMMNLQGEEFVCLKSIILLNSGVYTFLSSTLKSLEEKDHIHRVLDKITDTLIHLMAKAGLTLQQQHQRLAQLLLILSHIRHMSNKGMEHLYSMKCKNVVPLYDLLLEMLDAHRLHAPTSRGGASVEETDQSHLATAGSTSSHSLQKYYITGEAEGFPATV
Procedure, shortened: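 ER-α protein levels were measured in MCF-7 cells after 4 or 24 hr compound exposure (final 0.3–0.000003 μM) in RPMI containing 10% charcoal-stripped FBS.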

Row | Structure (SMILES) | MCF7 Viability Assay Max Response [1] | IC50 [1] | Emax [2] | DC50 [2]
1 | CNC(=O)/C=C/c1ccc(/C(=C(\c2ccccc2)C2CCC2)c2ccc3[nH]ncc3c2)cc1 [Compound 412, (E)-3-(4-((E)-2-Cyclobutyl-1-(1H-indazol-5-yl)-2-phenylvinyl)phenyl)-N-methylacrylamide] | ++ (++ = a single % value ≧ 40%) | ≤ 100 nM | ≥ 40% | ≤ 100 nM
2 | O=C(/C=C/c1ccc(/C(=C(\c2ccccc2)C2CCC2)c2ccc3[nH]nc(F)c3c2)cc1)NC1CC1 [Compound 413, (E)-3-(4-((E)-2-Cyclobutyl-1-(3-fluoro-1H-indazol-5-yl)-2-phenylvinyl)phenyl)-N-cyclopropylacrylamide] | ++ (++ = a single % value ≧ 40%) | ≤ 100 nM | ≥ 40% | ≤ 100 nM
3 | O=C(/C=C/c1ccc(/C(=C(\c2ccccc2)C2CCC2)c2ccc3[nH]nc(F)c3c2)cc1)NCCO [Compound 414, (E)-3-(4-((E)-2-Cyclobutyl-1-(3-fluoro-1H-indazol-5-yl)-2-phenylvinyl)phenyl)-N-(2-hydroxyethyl)acrylamide] | ++ (++ = a single % value ≧ 40%) | ≤ 100 nM | ≥ 40% | ≤ 100 nM
4 | O=C(/C=C/c1ccc(/C(=C(\c2ccccc2)C2CCC2)c2ccc3[nH]nc(F)c3c2)cc1)NCC(F)(F)F [Compound 415, (E)-3-(4-((E)-2-Cyclobutyl-1-(3-fluoro-1H-indazol-5-yl)-2-phenylvinyl)phenyl)-N-(2,2,2-trifluoroethyl)acrylamide] | ++ (++ = a single % value ≧ 40%) | ≤ 100 nM | ≥ 40% | ≤ 100 nM
5 | CC/C(=C(/c1ccc(/C=C/C(=O)NS(C)(=O)=O)cc1)c1ccc2scnc2c1)c1ccc(F)cc1Cl [Compound 416, (E)-3-(4-((E)-1-(Benzo[d]thiazol-5-yl)-2-(2-chloro-4-fluorophenyl)but-1-en-1-yl)phenyl)-N-(methylsulfonyl)acrylamide] | ++ (++ = a single % value ≧ 40%) | ≤ 100 nM | ≥ 40% | ≤ 100 nM
6 | CC/C(=C(/c1ccc(/C=C/C(N)=O)cc1)c1ccc2[nH]ncc2c1)c1ccc(F)cc1Cl [Compound 417, (E)-3-(4-((E)-2-(2-Chloro-4-fluorophenyl)-1-(1H-indazol-5-yl)but-1-en-1-yl)phenyl)acrylamide] | ++ (++ = a single % value ≧ 40%) | ≤ 100 nM | ≥ 40% | ≤ 100 nM
7 | CC/C(=C(/c1ccc(/C=C/C(=O)NO)cc1)c1ccc2[nH]ncc2c1)c1ccccc1 [Compound 418, (E)-3-(4-((E)-1-(1H-Indazol-5-yl)-2-phenylbut-1-en-1-yl)phenyl)-N-hydroxyacrylamide] | ++ (++ = a single % value ≧ 40%) | ≤ 100 nM | ≥ 40% | ≤ 100 nM
8 | CC/C(=C(/c1ccc(/C=C/C(=O)NC(C)C)cc1)c1ccc2[nH]ncc2c1)c1ccccc1 [Compound 419, (E)-3-(4-((E)-1-(1H-Indazol-5-yl)-2-phenylbut-1-en-1-yl)phenyl)-N-isopropylacrylamide] | ++ (++ = a single % value ≧ 40%) | ≤ 100 nM | ≥ 40% | ≤ 100 nM
9 | CC/C(=C(/c1ccc(/C=C/C(=O)NC)cc1)c1ccc2[nH]ncc2c1)c1ccc(F)cc1Cl [Compound 420, (E)-3-(4-((E)-2-(2-Chloro-4-fluorophenyl)-1-(1H-indazol-5-yl)but-1-en-1-yl)phenyl)-N-methylacrylamide] | ++ (++ = a single % value ≧ 40%) | ≤ 100 nM | ≥ 40% | ≤ 100 nM
10 | CC/C(=C(/c1ccc(/C=C/C(=O)NOC)cc1)c1ccc2[nH]ncc2c1)c1ccc(F)cc1Cl [Compound 421, (E)-3-(4-((E)-2-(2-Chloro-4-fluorophenyl)-1-(1H-indazol-5-yl)but-1-en-1-yl)phenyl)-N-methoxyacrylamide] | ++ (++ = a single % value ≧ 40%) | ≤ 100 nM | ≥ 40% | ≤ 100 nM
11 | CC/C(=C(/c1ccc(/C=C/C(=O)N(C)OC)cc1)c1ccc2[nH]ncc2c1)c1ccc(F)cc1Cl [Compound 422, (E)-3-(4-((E)-2-(2-Chloro-4-fluorophenyl)-1-(1H-indazol-5-yl)but-1-en-1-yl)phenyl)-N-methoxy-N-methylacrylamide] | ++ (++ = a single % value ≧ 40%) | ≤ 100 nM | ≥ 40% | ≤ 100 nM
12 | CC/C(=C(/c1ccc(/C=C/C(=O)NS(C)(=O)=O)cc1)c1ccc2[nH]ncc2c1)c1ccccc1 [Compound 423, (E)-3-(4-((E)-1-(1H-Indazol-5-yl)-2-phenylbut-1-en-1-yl)phenyl)-N-(methylsulfonyl)acrylamide] | ++ (++ = a single % value ≧ 40%) | ≤ 100 nM | ≥ 40% | ≤ 100 nM
13 | CC/C(=C(/c1ccc(/C=C/C(=O)NS(C)(=O)=O)cc1)c1ccc2c(cnn2C)c1)c1ccc(F)cc1Cl [Compound 424, (E)-3-(4-((E)-2-(2-Chloro-4-fluorophenyl)-1-(1-methyl-1H-indazol-5-yl)but-1-en-1-yl)phenyl)-N-(methylsulfonyl)acrylamide] | ++ (++ = a single % value ≧ 40%) | > 100 nM | ≥ 40% | ≤ 100 nM
14 | CC/C(=C(/c1ccc(/C=C/C(=O)Nc2nn[nH]n2)cc1)c1ccc2[nH]ncc2c1)c1ccc(F)cc1Cl [Compound 425, (E)-3-(4-((E)-2-(2-Chloro-4-fluorophenyl)-1-(1H-indazol-5-yl)but-1-en-1-yl)phenyl)-N-(2H-tetrazol-5-yl)acrylamide] | ++ (++ = a single % value ≧ 40%) | ≤ 100 nM | ≥ 40% | ≤ 100 nM
15 | CC/C(=C(/c1ccc(/C=C/C(N)=O)cc1)c1ccc2scnc2c1)c1ccccc1 [Compound 426, (E)-3-(4-((E)-1-(Benzo[d]thiazol-5-yl)-2-phenylbut-1-en-1-yl)phenyl)acrylamide] | ++ (++ = a single % value ≧ 40%) | ≤ 100 nM | ≥ 40% | ≤ 100 nM
16 | CC/C(=C(/c1ccc(/C=C/C(=O)NC)cc1)c1ccc2scnc2c1)c1ccccc1 [Compound 427, (E)-3-(4-((E)-1-(Benzo[d]thiazol-5-yl)-2-phenylbut-1-en-1-yl)phenyl)-N-methylacrylamide] | ++ (++ = a single % value ≧ 40%) | ≤ 100 nM | ≥ 40% | ≤ 100 nM
17 | CC/C(=C(/c1ccc(/C=C/C(=O)NS(=O)(=O)c2ccccc2)cc1)c1ccc2[nH]ncc2c1)c1ccc(F)cc1Cl [Compound 428, (E)-3-(4-((E)-2-(2-Chloro-4-fluorophenyl)-1-(1H-indazol-5-yl)but-1-en-1-yl)phenyl)-N-(phenylsulfonyl)acrylamide] | ++ (++ = a single % value ≧ 40%) | ≤ 100 nM | ≥ 40% | ≤ 100 nM
18 | CC/C(=C(/c1ccc(/C=C/C(=O)NS(=O)(=O)Cc2ccccc2)cc1)c1ccc2[nH]ncc2c1)c1ccc(F)cc1Cl [Compound 429, (E)-N-(Benzylsulfonyl)-3-(4-((E)-2-(2-chloro-4-fluorophenyl)-1-(1H-indazol-5-yl)but-1-en-1-yl)phenyl)acrylamide] | ++ (++ = a single % value ≧ 40%) | ≤ 100 nM | ≥ 40% | ≤ 100 nM
19 | CC/C(=C(/c1ccc(/C=C/C(=O)Nc2nccs2)cc1)c1ccc2[nH]ncc2c1)c1ccccc1 [Compound 430, (E)-3-(4-((E)-1-(1H-Indazol-5-yl)-2-phenylbut-1-en-1-yl)phenyl)-N-(thiazol-2-yl)acrylamide] | ++ (++ = a single % value ≧ 40%) | ≤ 100 nM | ≥ 40% | ≤ 100 nM
20 | CC/C(=C(/c1ccc(/C=C/C(=O)NC2CCCC2)cc1)c1ccc2[nH]ncc2c1)c1ccccc1 [Compound 431, (E)-3-(4-((E)-1-(1H-Indazol-5-yl)-2-phenylbut-1-en-1-yl)phenyl)-N-cyclopentylacrylamide] | ++ (++ = a single % value ≧ 40%) | ≤ 100 nM | ≥ 40% | ≤ 100 nM
21 | CC/C(=C(/c1ccc(/C=C/C(=O)NS(=O)(=O)c2ccccn2)cc1)c1ccc2[nH]ncc2c1)c1ccc(F)cc1Cl [Compound 432, (E)-3-(4-((E)-2-(2-Chloro-4-fluorophenyl)-1-(1H-indazol-5-yl)but-1-en-1-yl)phenyl)-N-(pyridin-2-ylsulfonyl)acrylamide] | ++ (++ = a single % value ≧ 40%) | ≤ 100 nM | ≥ 40% | ≤ 100 nM
